Values quoted from earlier work as cited in patent US11123309B2, “Methods for drug delivery, tumor imaging, and oxidative dehydrogenation using hierarchical ZSM-5 complex” (Imam Abdulrahman Bin Faisal University, priority 2018, dated 2021).

solubility in water: 50 microgram per ml
SMILES: Oc1ccc(/C=C/c2cc(O)cc(O)c2)cc1 [resveratrol, 3,5,4′ trihydroxy trans stilbene]
